Measurements as given in patent US9393226B2, “Use of osthole for treating focal segmental glomerulosclerosis” (National Defense Medical Center, priority 2014, dated 2016).

Key:
Type in all cases: in vivo, BALB/c mice
[1] = test system: adriamycin induced FSGS mice; experiment: Analysis of urine protein and renal function in mouse FSGS model; details: osthole 30 mg/kg daily intraperitoneal, vs pathological control group
Description: Experiments were performed on 8-week-old female BALB/c mice. The mice were separated into 3 groups at 8-weeks old. One of the groups were injected intravenously with normal saline to be used as normal controls, where the pathological control group and the osthole treated group were intravenously injected with a single dose of adriamycin (0.1 mg/10 g body weight) to induce FSGS, wherein the osthole treated group is intraperitoneally injected with osthole at a daily dose of 30 mg/kg body weight starting from 6 hours before FSGS induction by adriamycin. After intravenous injection of adriamycin, osthole was continuously given to the osthole treated group through intraperitoneal injection with a daily dose of 30 mg/kg body weight until they were sacrificed 28 days after FSGS induction. The pathological control group were given vehicle by intraperitoneal injection in the same fashion. Urine samples were collected in metabolic cages on days 3, 7, 14, and 21. Mice were sacrificed at day 7 or 28 post disease induction. Renal cortical tissues, spleen and serum were collected and stored properly for further analysis. Mice urine samples were collected by metabolic cages. Proteinuria was first tested with test paper, following the measurement of protein concentration with BCA Protein Assay Kit (PIERCE), where the urinary protein index was illustrated by 24-hour proteinuria (urinary protein concentration/urinary creatinine concentration). In addition, blood was collected through the eye socket, after separation, serum specimen was obtained, which was absorbed into Fuji Ori-Chem Slide and measured by machine (Fuji Photo Film Co., Tokyo, Japan) to read the data.

[2] = test system: adriamycin induced FSGS mice; experiment: TUNEL measurement of apoptosis in kidney tissues in mouse FSGS model; details: osthole 30 mg/kg daily intraperitoneal; 28th day; FIG. 10
Description: Experiments were performed on 8-week-old female BALB/c mice. The mice were separated into 3 groups at 8-weeks old. One of the groups were injected intravenously with normal saline to be used as normal controls, where the pathological control group and the osthole treated group were intravenously injected with a single dose of adriamycin (0.1 mg/10 g body weight) to induce FSGS, wherein the osthole treated group is intraperitoneally injected with osthole at a daily dose of 30 mg/kg body weight starting from 6 hours before FSGS induction by adriamycin. After intravenous injection of adriamycin, osthole was continuously given to the osthole treated group through intraperitoneal injection with a daily dose of 30 mg/kg body weight until they were sacrificed 28 days after FSGS induction. The pathological control group were given vehicle by intraperitoneal injection in the same fashion. Urine samples were collected in metabolic cages on days 3, 7, 14, and 21. Mice were sacrificed at day 7 or 28 post disease induction. Renal cortical tissues, spleen and serum were collected and stored properly for further analysis. TUNEL (Terminal deoxynucleotidyl transferase dUTP nick end labeling) was used for the detection of apoptosis. Kidney sections were prepared by fixing with formalin and embedded in paraffin. […]

[3] = test system: Nrf2 pathway; experiment: Anti-oxidative signaling pathway in kidney tissues (Nrf2 Western blot, HO-1 ELISA, GPx activity) in mouse FSGS model; details: kidney tissue, osthole 30 mg/kg daily intraperitoneal, FIG. 6
Description: (§1) Experiments were performed on 8-week-old female BALB/c mice. The mice were separated into 3 groups at 8-weeks old. One of the groups were injected intravenously with normal saline to be used as normal controls, where the pathological control group and the osthole treated group were intravenously injected with a single dose of adriamycin (0.1 mg/10 g body weight) to induce FSGS, wherein the osthole treated group is intraperitoneally injected with osthole at a daily dose of 30 mg/kg body weight starting from 6 hours before FSGS induction by adriamycin. After intravenous injection of adriamycin, osthole was continuously given to the osthole treated group through intraperitoneal injection with a daily dose of 30 mg/kg body weight until they were sacrificed 28 days after FSGS induction. The pathological control group were given vehicle by intraperitoneal injection in the same fashion. Urine samples were collected in metabolic cages on days 3, 7, 14, and 21. Mice were sacrificed at day 7 or 28 post disease induction. Renal cortical tissues, spleen and serum were collected and stored properly for further analysis.
(§2) Cytoplasmic and nuclear proteins were extracted from renal tissues using a Nuclear Extract Kit (Active Motif, Tokyo, Japan) according to the manufacturer's instructions. Protein extract was separated by electrophoresis and blotted. Target proteins were detected by Western blot analysis using primary antibodies against mouse Nrf2 (Santa Cruz), COX-2 (Santa Cruz), caspase-3 (Cell Signaling Technology, MA, USA), or caspase-9 (Cell Signaling Technology, MA, USA). […] Lastly, secondary antibodies were added and their signals were detected by chemiluminescence.
(§3) Serum PEG2 and renal HO-1 levels in mice were determined by enzyme linked immunosorbent assay according to the manufacturer's (R&D, U.S.A., Active Motif) instructions.
GPx activity in renal tissues was measured using a commercial glutathione peroxidase assay kit (Cayman, Mich., USA) according to the manufacturer's instructions. […]

[4] = test system: COX-2 and PGE2; experiment: Renal COX-2 (Western blot) and serum PGE2 (ELISA) in mouse FSGS model; details: osthole 30 mg/kg daily intraperitoneal, 28th day
Description: Experiments were performed on 8-week-old female BALB/c mice. The mice were separated into 3 groups at 8-weeks old. One of the groups were injected intravenously with normal saline to be used as normal controls, where the pathological control group and the osthole treated group were intravenously injected with a single dose of adriamycin (0.1 mg/10 g body weight) to induce FSGS, wherein the osthole treated group is intraperitoneally injected with osthole at a daily dose of 30 mg/kg body weight starting from 6 hours before FSGS induction by adriamycin. […]
as §2, with “Protein extract was separated by electrophoresis and blotted.” left out
as §3

[5] = test system: ROS (superoxide anion); experiment: Reactive oxygen species (ROS) determination in mouse FSGS model; details: osthole 30 mg/kg daily intraperitoneal, 28th day
Description: as §1, with “[…] Lucigenin was used to react with the ROS in urine, and detected with Hidex microplate luminometer (Finland), the results” for “Mice”, “represented as reactive luminescence units (RLU) per 15 min per milligram dry weight (i.e., RLU/15 min/mg dry weight). ROS in kidney tissues were detected with dihydroethidium (DHE),” for “sacrificed at day 7 or 28 post disease induction. Renal cortical tissues, spleen”, “quantitation was done by determining the ratio of signal positive nucleus/total nucleus in each kidney trans-section.” for “serum were collected and stored properly for further analysis.”

[6] = test system: NF-κB p65; experiment: NF-κB p65 immunostaining in kidney tissues in mouse FSGS model; details: osthole 30 mg/kg daily intraperitoneal; 28th day; FIG. 8
Description: as §1, with “analysis. In addition, immunohistochemistry was also performed. […] A quantitative image analysis software Pax-it; […], Villa Park, Ill., USA) was used to analyze the staining results.” for “analysis.”

[7] = test system: adriamycin induced FSGS mice; experiment: F4/80 immunostaining of monocyte/macrophage infiltration in kidney tissues in mouse FSGS model; details: osthole 30 mg/kg daily intraperitoneal; 28th day; FIG. 7
Description: as §1, with “analysis. In addition, immunohistochemistry was also performed. […] A quantitative image analysis software Pax-it; […], Villa Park, Ill., USA) was used to analyze the staining results.” for “analysis.”

[8] = test system: caspase-3, caspase-8 and caspase-9; experiment: Western blot analysis of caspase-3, caspase-8 and caspase-9 in kidney tissues in mouse FSGS model; details: kidney tissue
Description: as §1, with “analysis. Cytoplasmic and nuclear proteins were extracted from renal tissues using a Nuclear Extract Kit (Active Motif, Tokyo, Japan) according to the manufacturer's instructions. Protein extract was separated by electrophoresis and blotted. Target proteins were detected by Western blot analysis using primary antibodies against mouse Nrf2 (Santa Cruz), COX-2 (Santa Cruz), caspase-3 (Cell Signaling Technology, MA, USA), or caspase-9 (Cell Signaling Technology, MA, USA). Antibodies against histone H3 (Cell Signaling, CO, USA) or β-actin (Santa Cruz) were used as internal controls for the nuclear and cytosolic target proteins, respectively. Lastly, secondary antibodies were added and their signals were detected by chemiluminescence.” for “analysis.”

[9] = test system: adriamycin induced FSGS mice; experiment: Pathologic evaluation of kidney sections (H&E) in mouse FSGS model; details: osthole 30 mg/kg daily intraperitoneal; 7th and 28th day; FIG. 2
Description: as §1, with “analysis. […] Renal pathology was examined under optical microscope and renal lesions was scored. or EPHLs and sclerosis, at least 50 glomeruli in sections were examined for each mouse.” for “analysis.”

[10] = test system: adriamycin induced FSGS mice; experiment: Evaluation of renal fibrosis (collagen IV IHC, Sirius red staining) in mouse FSGS model; details: osthole 30 mg/kg daily intraperitoneal
Description: as §1, with “analysis. In addition, immunohistochemistry was also performed. […] A quantitative image analysis software Pax-it; […], Villa Park, Ill., USA) was used to analyze the staining results.” for “analysis.”

[11] = osthole 30 mg/kg daily intraperitoneal, vs pathological control group, FIG. 11

`COc1ccc2ccc(=O)oc2c1CC=C(C)C` [osthole] was tested, and the “urine protein concentration (urine protein/urine creatinine ratio)” value ([1]; 7th to 28th day, FIG. 1A) was “almost be completely suppressed”, the “blood urea nitrogen (BUN)” value ([1]; 28th day, FIG. 1B) was “lower BUN and Cr concentration, similar to that of the normal control group” and the “serum creatinine (Cr)” value ([1]; 28th day, FIG. 1C) was “lower BUN and Cr concentration, similar to that of the normal control group”. For the same compound, the “apoptosis in kidney tissues (TUNEL staining)” value [2] was “can be suppressed by administration of osthole”, the GPx activity [3] was “significantly increase HO-1 expression and GPx activity” and the HO-1 expression [3] was “significantly increase HO-1 expression and GPx activity”. The “Nrf2 translocation into the nucleus” value ([3]; vs pathological control group) was “significantly increase the Nrf2 translocation”, the “COX-2 expression level (renal)” value ([4]; FIG. 9A-B) was “restored to levels similar to the normal control group” and the “PGE2 expression level (serum)” value ([4]; FIG. 9C) was “restored to levels similar to the normal control group”. For the same compound, the “superoxide anion (ROS) in serum” value ([5]; FIG. 5A) was “suppressed exhibition of such phenomenon”, the “superoxide anion (ROS) in kidney tissue” value ([5]; FIG. 5B) was “suppressed exhibition of such phenomenon” and the “NF-κB p65 nuclear translocation in kidney tissues” value [6] was “can be suppressed by osthole”. The “monocyte/macrophage infiltration (F4/80) in kidney tissues” value [7] was “significantly reduced infiltration”, the “expression level of caspase-8” value ([8]; data not shown) was “did not show significant difference” and the “caspase-3 in activated state (p17 fragment)” value [8, 11] was “suppressed significantly”. For the same compound, the “caspase-9 in activated state (p37 fragment)” value [8, 11] was “suppressed significantly”, the “disease progression of glomerular sclerosis (histopathology)” value [9] was “significantly suppress the disease progression of glomerular sclerosis” and the “fibrosis of the renal tissue (Sirius red staining)” value ([10]; 28th day, FIG. 4) was “suppress fibrosis of the renal tissue, similar to the normal control group”. The “collagen IV expression in glomerular tissue (IHC)” value ([10]; FIG. 3) was “significantly suppress collagen IV expression in glomerular tissue”.
